Data published in ChEMBL document CHEMBL2157914, “Synthesis, anti-inflammatory and antimicrobial evaluation of novel 1-acetyl-3,5-diaryl-4,5-dihydro (1H) pyrazole derivatives bearing urea, thiourea and sulfonamide moieties” (2012).
≈ marks a conversion by molar mass, not a printed value. Calls of active or inactive are those of the source. The calls are words filed in the database; no cut-off is given here.

Experiments:
THP-1 [1] = assay: Antiinflammatory activity in human THP1 cells assessed as inhibition of LPS-stimulated TNFalpha production at 10 uM incubated for 30 mins prior to LPS-challenge measured 24 hrs post LPS challenge by ELISA; format: functional
THP-1 [2] = assay: Antiinflammatory activity in human THP1 cells assessed as inhibition of LPS-stimulated IL-6 production at 10 uM incubated for 30 mins prior to LPS-challenge measured 24 hrs post LPS-challenge by ELISA; format: functional
Escherichia coli [3] = assay: Antibacterial activity against Escherichia coli MTCC 443 after 24 hrs by agar well diffusion method; format: functional; settings: MTCC 443, 24 h
Staphylococcus aureus [4] = assay: Antibacterial activity against Staphylococcus aureus MTCC 96 up to 200 ug/mL after 24 hrs by agar well diffusion method; format: functional, organism-based
Bacillus subtilis [5] = assay: Antibacterial activity against Bacillus subtilis MTCC 441 up to 200 ug/mL after 24 hrs by agar well diffusion method; format: functional, organism-based
Salmonella typhimurium [6] = assay: Antibacterial activity against Salmonella typhimurium MTCC 98 up to 200 ug/mL after 24 hrs by agar well diffusion method; format: functional, organism-based; settings: Salmonella enterica subsp. enterica serovar Typhimurium
Candida albicans [7] = assay: Antifungal activity against Candida albicans MTCC 227 up to 200 ug/mL after 2 to 3 days by agar well diffusion method; format: functional, organism-based
Aspergillus niger [8] = assay: Antifungal activity against Aspergillus niger MTCC 281 up to 200 ug/mL after 2 to 3 days by agar well diffusion method; format: functional, organism-based
Fusarium solani [9] = assay: Antifungal activity against Fusarium solani MTCC 350 up to 200 ug/mL after 2 to 3 days by agar well diffusion method; format: functional, organism-based
Aspergillus flavus [10] = assay: Antifungal activity against Aspergillus flavus MTCC 277 up to 200 ug/mL after 2 to 3 days by agar well diffusion method; format: functional, organism-based
Candida albicans [11] = assay: Ratio of miconazole MIC to compound MIC for Candida albicans MTCC 227; format: functional
Aspergillus flavus [12] = assay: Ratio of miconazole MIC to compound MIC for Aspergillus flavus MTCC 277; format: functional
Staphylococcus aureus [13] = assay: Antibacterial activity against Staphylococcus aureus MTCC 96 after 24 hrs by agar well diffusion method; format: functional; settings: MTCC 96, 24 h
Bacillus subtilis [14] = assay: Antibacterial activity against Bacillus subtilis MTCC 441 after 24 hrs by agar well diffusion method; format: functional; settings: MTCC 441, 24 h
Salmonella typhimurium [15] = assay: Antibacterial activity against Salmonella typhimurium MTCC 98 after 24 hrs by agar well diffusion method; format: functional, Salmonella enterica subsp. enterica serovar Typhimurium; settings: Salmonella enterica, MTCC 98, 24 h
Candida albicans [16] = assay: Antifungal activity against Candida albicans MTCC 227 after 2 to 3 days by agar well diffusion method; format: functional
Aspergillus niger [17] = assay: Antifungal activity against Aspergillus niger MTCC 281 after 2 to 3 days by agar well diffusion method; format: functional
Fusarium solani [18] = assay: Antifungal activity against Fusarium solani MTCC 350 after 2 to 3 days by agar well diffusion method; format: functional
Aspergillus flavus [19] = assay: Antifungal activity against Aspergillus flavus MTCC 277 after 2 to 3 days by agar well diffusion method; format: functional
Staphylococcus aureus [20] = assay: Ratio of ciprofloxacin MIC to compound MIC for Staphylococcus aureus MTCC 96; format: functional
Bacillus subtilis [21] = assay: Ratio of ciprofloxacin MIC to compound MIC for Bacillus subtilis MTCC 441; format: functional
Escherichia coli [22] = assay: Ratio of ciprofloxacin MIC to compound MIC for Escherichia coli MTCC 443; format: functional
Salmonella typhimurium [23] = assay: Ratio of ciprofloxacin MIC to compound MIC for Salmonella typhimurium MTCC 98; format: functional, Salmonella enterica subsp. enterica serovar Typhimurium
Fusarium solani [24] = assay: Ratio of miconazole MIC to compound MIC for Fusarium solani MTCC 350; format: functional
Aspergillus niger [25] = assay: Ratio of miconazole MIC to compound MIC for Aspergillus niger MTCC 281; format: functional
Escherichia coli [26] = assay: Antibacterial activity against Escherichia coli MTCC 443 up to 200 ug/mL after 24 hrs by agar well diffusion method; format: functional, organism-based
THP-1 [27] = assay: Antiinflammatory activity in human THP1 cells assessed as inhibition of LPS-stimulated TNFalpha production at 1 uM incubated for 30 mins prior to LPS-challenge measured 24 hrs post LPS-challenge by ELISA; format: functional
THP-1 [28] = assay: Antiinflammatory activity in human THP1 cells assessed as inhibition of LPS-stimulated IL-6 production at 1 uM incubated for 30 mins prior to LPS-challenge measured 24 hrs post LPS-challenge by ELISA; format: functional

Row | SMILES | MIC (Escherichia coli [3]) [µg/mL] | MIC (Staphylococcus aureus [13]) [µg/mL] | MIC (Bacillus subtilis [14]) [µg/mL] | MIC (Salmonella typhimurium [15]) [µg/mL] | MIC (Candida albicans [16]) [µg/mL] | MIC (Fusarium solani [18]) [µg/mL] | MIC (Aspergillus flavus [19]) [µg/mL] | inhibition at 10 µM (THP-1 [1]) [%] | inhibition at 10 µM (THP-1 [2]) [%] | Activity (Staphylococcus aureus [4]) | Activity (Bacillus subtilis [5]) | Activity (Salmonella typhimurium [6]) | Activity (Candida albicans [7]) | Activity (Aspergillus niger [8]) | Activity (Fusarium solani [9]) | Activity (Aspergillus flavus [10]) | also measured
1 | COc1ccc(C2=NN(C(C)=O)C(c3ccc(NC(=S)Nc4ccccc4C(F)(F)F)cc3)C2)cc1OC (stereo not drawn) | 95 (≈ 175 µM) |  |  |  |  |  |  | 40 | 65 | inactive | inactive | inactive | inactive | inactive | inactive | inactive | 
2 | COc1ccc(C2=NN(C(C)=O)C(c3ccc(NS(=O)(=O)c4ccc(C(F)(F)F)cc4Cl)cc3)C2)cc1OC (stereo not drawn) | 10 (≈ 17.2 µM) | 15 (≈ 25.8 µM) | 10 (≈ 17.2 µM) | 15 (≈ 25.8 µM) | 40 (≈ 68.7 µM) | 10 (≈ 17.2 µM) | 15 (≈ 25.8 µM) | 38 | 55 |  |  |  |  |  |  |  | Ratio (Staphylococcus aureus [20]): 1.3; Ratio (Bacillus subtilis [21]): 1.5; Ratio (Escherichia coli [22]): 1.5; Ratio (Salmonella typhimurium [23]): 1.3; Ratio (Fusarium solani [24]): 1.3; Ratio (Aspergillus flavus [12]): 1.5; MIC (Aspergillus niger [17]): 15 µg/mL (≈ 25.8 µM)
3 | COc1ccc(C2=NN(C(C)=O)C(c3ccc(NS(=O)(=O)c4ccc(C(F)(F)F)cc4Br)cc3)C2)cc1OC (stereo not drawn) | 10 (≈ 16 µM) | 10 (≈ 16 µM) | 15 (≈ 23.9 µM) | 10 (≈ 16 µM) | 20 (≈ 31.9 µM) | 10 (≈ 16 µM) | 10 (≈ 16 µM) | 0 | 8 |  |  |  |  |  |  |  | Ratio (Staphylococcus aureus [20]): 2; Ratio (Escherichia coli [22]): 1.5; Ratio (Salmonella typhimurium [23]): 2; Ratio (Aspergillus niger [25]): 1.5; Ratio (Fusarium solani [24]): 1.5; Ratio (Aspergillus flavus [12]): 2; MIC (Aspergillus niger [17]): 10 µg/mL (≈ 16 µM)
4 | COc1ccc(C2=NN(C(C)=O)C(c3ccc(NC(=S)Nc4ccc(Cl)cc4)cc3)C2)cc1OC (stereo not drawn) |  |  | 90 (≈ 177 µM) |  | 90 (≈ 177 µM) | 90 (≈ 177 µM) | 90 (≈ 177 µM) | 68 | 76 | inactive |  | inactive |  | inactive |  |  | Activity (Escherichia coli [26]): inactive
5 | C[C@@H]1C[C@H]2[C@@H]3CCC4=CC(=O)C=C[C@]4(C)[C@@]3(F)[C@@H](O)C[C@]2(C)[C@@]1(O)C(=O)CO [DEXAMETHASONE] |  |  |  |  |  |  |  |  |  |  |  |  |  |  |  |  | inhibition at 1 µM (THP-1 [27]): 76%; inhibition at 1 µM (THP-1 [28]): 84%
6 | COc1ccc(C2=NN(C(C)=O)C(c3ccc(NC(=S)Nc4cccc(C(F)(F)F)c4)cc3)C2)cc1OC (stereo not drawn) |  |  |  |  |  |  |  | 0 | 8 | inactive | inactive | inactive | inactive | inactive | inactive | inactive | Activity (Escherichia coli [26]): inactive
7 | COc1ccc(C2=NN(C(C)=O)C(c3ccc(NC(=S)Nc4ccc(C)cc4)cc3)C2)cc1OC (stereo not drawn) |  |  |  |  |  |  |  | 0 | 3 | inactive | inactive | inactive | inactive | inactive | inactive | inactive | Activity (Escherichia coli [26]): inactive

Second part, led by results:

Row | MIC (Escherichia coli [3]) [µg/mL] | MIC (Staphylococcus aureus [13]) [µg/mL] | MIC (Bacillus subtilis [14]) [µg/mL] | MIC (Salmonella typhimurium [15]) [µg/mL] | MIC (Candida albicans [16]) [µg/mL] | MIC (Fusarium solani [18]) [µg/mL] | MIC (Aspergillus flavus [19]) [µg/mL] | SMILES | inhibition at 10 µM (THP-1 [1]) [%] | inhibition at 10 µM (THP-1 [2]) [%] | Activity (Staphylococcus aureus [4]) | Activity (Bacillus subtilis [5]) | Activity (Salmonella typhimurium [6]) | Activity (Candida albicans [7]) | Activity (Aspergillus niger [8]) | Activity (Fusarium solani [9]) | Activity (Aspergillus flavus [10]) | also measured
8 | 15 (≈ 28.5 µM) | 25 (≈ 47.5 µM) | 25 (≈ 47.5 µM) | 40 (≈ 76 µM) | 15 (≈ 28.5 µM) | 15 (≈ 28.5 µM) | 15 (≈ 28.5 µM) | COc1ccc(C2=NN(C(C)=O)C(c3ccc(NC(=O)Nc4ccc(C(F)(F)F)cc4)cc3)C2)cc1OC (stereo not drawn) | 3 | 21 |  |  |  |  |  |  |  | Ratio (Candida albicans [11]): 1.3; Ratio (Aspergillus flavus [12]): 1.3; MIC (Aspergillus niger [17]): 25 µg/mL (≈ 47.5 µM)
9 | 90 (≈ 167 µM) |  | 90 (≈ 167 µM) | 90 (≈ 167 µM) |  | 90 (≈ 167 µM) |  | COc1ccc(C2=NN(C(C)=O)C(c3ccc(NS(=O)(=O)c4ccc(OC)c(OC)c4)cc3)C2)cc1OC (stereo not drawn) | 0 | 0 | inactive |  |  | inactive | inactive |  | inactive | 
10 | 90 (≈ 183 µM) |  |  |  |  |  |  | COc1ccc(C2=NN(C(C)=O)C(c3ccc(NC(=O)Nc4cc(F)ccc4C)cc3)C2)cc1OC (stereo not drawn) | 28 | 31 | inactive | inactive | inactive | inactive | inactive | inactive | inactive | 
11 | 90 (≈ 265 µM) |  |  |  |  |  |  | COc1ccc(C2=NN(C(C)=O)C(c3ccc(N)cc3)C2)cc1OC (stereo not drawn) | 0 | 0 | inactive | inactive | inactive | inactive | inactive | inactive | inactive | 
12 |  |  |  |  | 90 (≈ 185 µM) | 90 (≈ 185 µM) | 90 (≈ 185 µM) | COc1ccc(C2=NN(C(C)=O)C(c3ccc(NC(=O)Nc4ccc(C)c(C)c4)cc3)C2)cc1OC (stereo not drawn) | 18 | 30 | inactive | inactive | inactive |  | inactive |  |  | Activity (Escherichia coli [26]): inactive
13 | 35 (≈ 63.9 µM) | 70 (≈ 128 µM) | 55 (≈ 100 µM) | 25 (≈ 45.7 µM) | 35 (≈ 63.9 µM) | 10 (≈ 18.3 µM) | 10 (≈ 18.3 µM) | COc1ccc(C2=NN(C(C)=O)C(c3ccc(NS(=O)(=O)c4ccc(C(F)(F)F)cc4)cc3)C2)cc1OC (stereo not drawn) | 0 | 0 |  |  |  |  |  |  |  | Ratio (Fusarium solani [24]): 1.5; Ratio (Aspergillus flavus [12]): 2; MIC (Aspergillus niger [17]): 20 µg/mL (≈ 36.5 µM)
14 | 80 (≈ 162 µM) | 80 (≈ 162 µM) |  |  |  | 90 (≈ 183 µM) |  | COc1ccc(C2=NN(C(C)=O)C(c3ccc(NC(=S)Nc4ccc(F)cc4)cc3)C2)cc1OC (stereo not drawn) | 3 | 10 |  | inactive | inactive | inactive | inactive |  | inactive | 
